Results reported in patent US11970497B2, “Tricyclic AKR1C3 dependent KARS inhibitors” (Novartis AG, priority 2019, dated 2024).

What was measured:
Assay in all cases: Expanded lung cancer cell line proliferation assay
Format in all cases: cell-based
CAL-12T = conditions: Homo sapiens, 72 h, average of PrestoBlue and Cell Titer Glo, AKR1C3 23.6 TPM, read-out: Absolute Qualified AC50
Excerpt: (§1) Cellular Proliferation Assay to Assess Compound Activity in an Expanded Panel of 57 NRF2 Pathway Mutant and Wild Type Lung Cancer Cell Lines.
(§2) Both the PrestoBlue Cell Viability Reagent and Cell Titer Glo were multiplexed together as the final assay readout. PrestoBlue is a cell permeable resazurin-based solution that utilizes the reducing power of living cells to quantitatively measure their proliferation. Cell Titer Glo measures the amount of ATP present, an indicator of metabolically active cells.
(§3) Expanded Lung Cancer Cell Line Proliferation Assay Outline, Analysis and Profiling Results
(§4) Cells were seeded into 384 well assay plates (Greiner Bio-One, Catalog #781080) using the Thermo Scientific Matrix WellMate microplate dispenser and Thermo Scientific Matrix WellMate small bore disposable tubing cartridges (Catalog #201-30002) in 30 μl of growth media (RPMI-1640 supplemented with 10% fetal bovine serum and 1% penicillin/streptomycin) per well (1000 to 2000 cells/well depending on doubling time). Following cell plating, assay plates were placed into tissue culture incubator at 37° C./5% CO2 overnight. The next day one assay plate for each cell line was used for a Day 0 Cell Titer Glo and PrestoBlue readout. 3 μl of PrestoBlue Cell Viability Reagent (Thermo Scientific, Catalog #A13262) was added to each well and then assay plates were incubated at 37° C./5% CO2 for 30 minutes prior to fluorescence readout on the EnVision 2105 multimode plate reader (Perkin Elmer). Following the PrestoBlue readout 18 μl of Cell Titer Glo (Promega, Catalog #G7572) was then added to each well, allowing plates to incubate at room temperature for 10 minutes prior to luminescence readout on the EnVision. Compound was then added to the remaining assay plates (each cell line run in triplicates) using the Labcyte Inc Echo 555 acoustic liquid handler. Compounds were arrayed into a Labcyte Inc Echo qualified 384 well LDV microplate (Cat #LP-0200-GNF10). Compounds were serially diluted 1:3.16 to generate an 8 point dose response for a final top concentration of 1 μM. DMSO (0.3%) was used as the neutral control (NC) and MG132 (30 μM) was used as the active control (AC). 90 nl of compounds were added to 30 μl of cells using the Labcyte Inc Echo 555 acoustic liquid handler for a final DMSO assay concentration of 0.3%. Following compound addition, assay plates were spun down in a tabletop centrifuge at 500 rpm for 1 minute and then placed into tissue culture incubator at 37° C./5% CO2 for 72 h. Following the 72 h incubation, all assay plates were readout using PrestoBlue and Cell Titer Glo using the same conditions previously described for the Day 0 readout. The Day 0 readout (untreated cells) was used to compare to the 72 h DMSO treated samples on each assay plate as a way of tracking each cell line's fold growth. NC1 control based normalization was used for data analysis in Helios, which incorporates the DMSO neutral control (NC) and MG132 active control (AC) for generating dose response curves that are then used to calculate the Absolute Qualified AC50 calls for each compound and cell line.
(§5) NC1 normalization calculation model: NC1: xn=±(x−NC)/(AC−NC)
(§6) +/− is set by the inhibition type parameter setting where NC and AC are averages (mean or median) over the corresponding NC and AC well values. The Qualified Absolute AC50 values for Compound 36 and Compound 40 are listed in the table below and are represented as the average activity in both the PrestoBlue and Cell Titer Glo assay readouts.
(§7) Absolute Qualified AC50 Values Listed Below are a Representation of Each Compounds' Average Activity in Both the PrestoBlue and Cell Titer Glo Assay Readouts.

COLO-699 = conditions: COLO-699, 72 h, average of PrestoBlue and Cell Titer Glo; AKR1C3 expression: no data available; read-out: Absolute Qualified AC50
Excerpt: as §1, §2, §3, §4, §5, §6, §7

LCLC-97TM1 = conditions: Homo sapiens; LCLC-97TM1, 72 h, average of PrestoBlue and Cell Titer Glo; AKR1C3 1.9 TPM; read-out: Absolute Qualified AC50
Excerpt: as §1, §2, §3, §4, §5, §6, §7

NCI-H1373 = conditions: Homo sapiens; NCI-H1373, 72 h, average of PrestoBlue and Cell Titer Glo; AKR1C3 8 TPM; read-out: Absolute Qualified AC50
Excerpt: as §1, §2, §3, §4, §5, §6, §7

NCI-H1568 = conditions: NCI-H1568, 72 h, average of PrestoBlue and Cell Titer Glo; AKR1C3 2.8 TPM; read-out: Absolute Qualified AC50
Excerpt: as §1, §2, §3, §4, §5, §6, §7

NCI-H1703 = conditions: Homo sapiens; NCI-H1703, 72 h, average of PrestoBlue and Cell Titer Glo; AKR1C3 3.2 TPM; read-out: Absolute Qualified AC50
Excerpt: as §1, §2, §3, §4, §5, §6, §7

NCI-H1838 = conditions: Homo sapiens; NCI-H1838, 72 h, average of PrestoBlue and Cell Titer Glo; AKR1C3 1.8 TPM; read-out: Absolute Qualified AC50
Excerpt: as §1, §2, §3, §4, §5, §6, §7

NCI-H2122 = conditions: Homo sapiens; NCI-H2122, 72 h, average of PrestoBlue and Cell Titer Glo; AKR1C3 1507.5 TPM; read-out: Absolute Qualified AC50
Excerpt: as §1, §2, §3, §4, §5, §6, §7

NCI-H2172 = conditions: NCI-H2172, 72 h, average of PrestoBlue and Cell Titer Glo; AKR1C3 1522.4 TPM; read-out: Absolute Qualified AC50
Excerpt: as §1, §2, §3, §4, §5, §6, §7

NCI-H358 = conditions: Homo sapiens; NCI-H358, 72 h, average of PrestoBlue and Cell Titer Glo; AKR1C3 5.6 TPM; read-out: Absolute Qualified AC50
Excerpt: as §1, §2, §3, §4, §5, §6, §7

NCI-H524 = conditions: Homo sapiens; NCI-H524, 72 h, average of PrestoBlue and Cell Titer Glo; AKR1C3 0.8 TPM; read-out: Absolute Qualified AC50
Excerpt: as §1, §2, §3, §4, §5, §6, §7

NCI-H661 = conditions: Homo sapiens; NCI-H661, 72 h, average of PrestoBlue and Cell Titer Glo; AKR1C3 3 TPM; read-out: Absolute Qualified AC50
Excerpt: as §1, §2, §3, §4, §5, §6, §7

RERF-LC-MS = conditions: 72 h, average of PrestoBlue and Cell Titer Glo, AKR1C3 221.6 TPM, read-out: Absolute Qualified AC50
Excerpt: as §1, §2, §3, §4, §5, §6, §7

SBC5 = conditions: Homo sapiens, SBC-5; SBC5, 72 h, average of PrestoBlue and Cell Titer Glo; AKR1C3 5.5 TPM; read-out: Absolute Qualified AC50
Excerpt: as §1, §2, §3, §4, §5, §6, §7

SMILES	AC50 (CAL-12T) [nM]	AC50 (COLO-699) [nM]	AC50 (LCLC-97TM1) [nM]	AC50 (NCI-H1373) [nM]	AC50 (NCI-H1568) [nM]	AC50 (NCI-H1703) [nM]	AC50 (NCI-H1838) [nM]	AC50 (NCI-H2122) [nM]	AC50 (NCI-H2172) [nM]	AC50 (NCI-H358) [nM]	AC50 (NCI-H524) [nM]	AC50 (NCI-H661) [nM]	AC50 (RERF-LC-MS) [nM]	AC50 (SBC5) [nM]
CN1c2ccc(F)cc2C(=O)CC12CCN(C(=O)NCc1ccc(F)c(NCCO)c1)CC2 [Example 36, 6′-fluoro-N-(4-fluoro-3-((2-hydroxyethyl)amino)benzyl)-1′-methyl-4′-oxo-3′,4′-dihydro-1′H-spiro[piperidine-4,2′-quinoline]-1-carboxamide]	> 1000	> 1000	> 1000	> 1000	> 1000	> 1000	> 1000	258	> 1000	> 1000	> 1000	> 1000	> 1000	> 1000
O=C1CC2(CCN(C(=O)NCc3ccc(F)cc3)CC2)Nc2ccc(F)cc21 [Example 40]	> 1000	> 1000	> 1000	> 1000	> 1000	> 1000	> 1000	56	149	> 1000	> 1000	> 1000	> 1000	> 1000
